Test results as given in patent US20120184438A1, “FORMULATIONS” (SYNGENTA CROP PROTECTION, LLC, priority 2009, published 2012).
Like-named read-outs stand apart in the source and are kept apart here. Each block holds one molecule with its values, some of them ahead of it.

Assays:
Assay type in all cases: physicochemical
[1] = Aqueous solubility of solvents
From the text: (§1) This Example illustrates that Compound Number 1 is unusually effective at dissolving pesticides given that it has a water solubility which is low.

[2] = Pesticide (A.I.) solubility in several solvents at 25° C.
Protocol: A glass vial was approximately one eighth filled with an active ingredient [Al] and then solvent [in this example, Compound Number 1 from Table 1] was added until the vial was approximately one third full. The resultant sample was mixed with a Whirlimixer™ and was then stored at 25° C. The sample was checked every few days; if there was no solid active ingredient present then additional active ingredient was added; if there was no liquid remaining then additional solvent was added. This procedure was repeated until the sample had equilibrated for 4 weeks following the final addition of either active ingredient or solvent. The supernatent liquid layer was then analysed by gas chromatography [except for 4-hydroxy-3-[2-(2-methoxyethoxymethyl)-6-trifluoromethylpyridine-3-carbonyl]-bicyclo[3.2.1]oct-3-en-2-one which was analysed by liquid chromatography] for active ingredient concentration; the results are given in Table 2:
as §1

[3] = Solubility of agrochemical active ingredients in Compound No. 1 (equilibrated 4 weeks at 25° C., supernatant analysed by GC/LC); details: solvent Compound No. 1 (DEET), 4 weeks equilibration
Protocol: The resultant sample was mixed with a Whirlimixer™ and was then stored at 25° C. The sample was checked every few days; if there was no solid active ingredient present then additional active ingredient was added; if there was no liquid remaining then additional solvent was added. This procedure was repeated until the sample had equilibrated for 4 weeks following the final addition of either active ingredient or solvent.

[4] = solubility of the solvent in water

- Aqueous solubility [1, 4]: 100 % w/w
Molecule: C[S+](C)[O-] [DMSO]
- A.I. Solubility at 25° C., Azoxystrobin [2]: 32.1 % w/w
- A.I. Solubility at 25° C., Cyproconazole [2]: 55.5 % w/w

- Aqueous solubility [1, 4]: 0.030 % w/w
Molecule: CC(C)[C@@H]1CC[C@@H](C)CC1=O [Menthone]

- Aqueous solubility [1, 4]: 0.003 % w/w
Molecule: CC(=O)O[C@@H]1C[C@H]2CC[C@]1(C)C2(C)C (racemic) [Isobornyl acetate]

Molecule: CO/C=C(/C(=O)OC)c1ccccc1Oc1cc(Oc2ccccc2C#N)ncn1 [Azoxystrobin]
- Solubility in Compound No. 1 at 25° C. [3]: 11.3 % w/w

Molecule: CC(C1CC1)C(O)(Cn1cncn1)c1ccc(Cl)cc1 (stereo not drawn) [Cyproconazole]
- Solubility in Compound No. 1 at 25° C. [3]: 33.4 % w/w

Molecule: COCCOCc1nc(C(F)(F)F)ccc1C(=O)C1=C(O)C2CCC(C2)C1=O (stereo not drawn) [4-Hydroxy-3-[2-(2-methoxyethoxymethyl)-6-trifluoromethylpyridine-3-carbonyl]-bicyclo[3.2.1]oct-3-en-2-one]
- Solubility in Compound No. 1 at 25° C. [3]: 24.7 % w/w

- Aqueous solubility [1, 4]: 0.1 % w/w
Molecule: CCCCOC(=O)c1ccccc1 [n-Butylbenzoate]

- Aqueous solubility [1]: 0.1 % w/w
Molecule: Trimethylbenzene
- A.I. Solubility at 25° C., Azoxystrobin [2]: 1.7 % w/w
- A.I. Solubility at 25° C., Cyproconazole [2]: 5.8 % w/w

Molecule: CCN(CC)C(=O)c1cccc(C)c1 [Compound No. 1]
- Aqueous solubility [1, 4]: 0.1 % w/w

Molecule: OCC1CCCO1 (stereo not drawn) [Tetrahydrofurfuryl alcohol]
- Aqueous solubility [1, 4]: 100 % w/w

- Aqueous solubility [1, 4]: 100 % w/w
Molecule: CN1CCCC1=O [N-Methyl pyrrolidone]
